The record followed here is patent US20260176289A1, “SMALL MOLECULE INHIBITORS OF KRAS PROTEINS” (Merck Sharp & Dohme LLC, priority 2022, published 2026).

One experiment has as its system AsPC-1 cells. As to the kind of experiment: Cellular phospho-ERK assay, AsPC-1 cells (homozygous KRAS-G12D). The format is cell-based. The following applies: Homo sapiens, ASPC1, 2 h, read-out: AsPC1 pERK IC50. An outline of the steps: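 p-ERK/total ERK ratio, measured by AlphaLISA SureFire Ultra multiplex in lysates, was fitted to a 4-parameter logistic model for IC50. Compound exposure was 2 h at 37° C, 5% CO2, 10-point 1:3 dilutions from 30 μM final, on cells plated the previous night.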

The next experiment concerns the target KRAS-WT (Homo sapiens, UniProt P01116). As to the kind of experiment: SOS-catalyzed nucleotide exchange assay (Procedure A, TR-FRET), KRAS-WT. The format is biochemical. The note with it: nucleotide exchange, read-out: KRAS WT GNE IC50. The method in brief:
(§1)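 Biotinylated RAS (KRAS-G12C carries C51S/C80L/C118S; others WT background) preloaded with Bodipy-GDP plus Tb-streptavidin, preincubated with compound 60 min at RT, then human SOS and 3 mM GTP added. Final RAS/SOS: G12C 3 nM/40 nM, 60 min; WT 1 nM/40 nM, 60 min; G12V 1.25 nM/160 nM, 90 min; NRAS 1.25 nM/40 nM, 60 min. TR-FRET 520/495 ratio normalized to DMSO and saturating inhibitor; 10-point curves fit four-parameter logistic.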

Another experiment concerns the target KRAS-G13D (Homo sapiens, UniProt P01116, G13D). The experiment in a line: SOS-catalyzed nucleotide exchange assay (Procedure A, TR-FRET), KRAS-G13D. The following applies: nucleotide exchange, Procedure A; read-out: KRAS G13D GNE IC50. It is filed as biochemical. The source says: (§2) Procedure for SOS-Catalyzed Nucleotide Exchange Assay for KRAS-WT, G12C/D/V, G13D, HRAS, and NRAS (Procedure A)
(§3) Recombinant KRAS-G12C protein used in this assay has an additional triple mutation (C51S/C80L/C118S). Whereas KRAS-WT, G12D/V, G13D, HRAS and NRAS are in context of their WT protein sequence background. Specifically, the SOS-catalyzed nucleotide exchange assay utilizes a preformed TR-FRET complex containing a specific biotinylated RAS protein (KRAS-WT, G12C/V/D, G13D, HRAS, NRAS; described above) with Bodipy-GDP, and Terbium-streptavidin. Compounds are preincubated with this complex for 60 minutes. Subsequently, recombinant human SOS protein and unlabeled GTP are added to initiate the exchange reaction. Small molecule inhibitors stabilize the Bodipy-GDP complex whereas the untreated protein rapidly exchanges Bodipy-GDP for unlabeled GTP resulting in reduced TR-FRET signal.
(§4) To assemble the preformed TR-FRET complexes, each biotinylated RAS protein is diluted to 2 μM in an EDTA Buffer (20 mM HEPES pH 7.5, 50 mM sodium chloride, 10 mM EDTA, and 0.01% Tween) and incubated at room temperature for one hour. This mixture is then further diluted to 90 nM in an Assay Buffer (20 mM HEPES pH 7.5, 150 mM sodium chloride, 10 mM magnesium chloride, and 0.005% Tween) containing 15 nM of Terbium-Streptavidin (Invitrogen, catalog #PV3577) and 900 nM of Bodipy-GDP (Invitrogen, catalog #G22360) and incubated at room temperature for six hours. It should be noted that this preformed TR-FRET complex for each of the RAS protein were made ahead of time, aliquoted and stored at −80° C. until the day of the experiment.
(§5) Each test compound (10 mM stock in DMSO) is diluted in DMSO to make a final-10-point, 3-fold dilution and is acoustically dispensed into a 384-well assay plate (Corning, catalog #3820) using an Echo 550 (Labcyte). Each well of the assay plate receives 3 μL of a specific 3×RAS preformed TR-FRET complex and 3 μL of Assay Buffer and is incubated at room temperature for 60 minutes (preincubation time). Each well then receives 3 μL of 3×recombinant human SOS protein and GTP (Sigma, G8877) in Assay Buffer and is incubated at room temperature for 30 minutes (G13D), 60 minutes (KRAS WT/G12C/D, H/NRAS) or 90 minutes for G12V. The final reaction in each well of 9 μL consists of 3 mM GTP, specific Ras and SOS proteins in the following concentrations: KRAS-G12C/SOS=3 nM/40 nM, KRAS-WT and G12D/SOS=1 nM/40 nM, KRAS-G12V/SOS=1.25 nM/160 nM. KRAS-G13D/SOS=1.25 nM/0 nM, HRAS and NRAS=1.25 nM/40 nM.
(§6) The time-resolved fluorescence resonance energy transfer (TR-FRET) signal is measured on an Envision (PerkinElmer) plate reader: Excitation filter=340 nm; emission 1=495 nm; emission2=520 nm; dichroic mirror=D400/D505; delay time=[…]. The signal of each well is determined as the ratio of the emission at 520 nm to that at 495 nm. Percent effect of each well is determined after normalization to control wells containing DMSO (no effect) or a saturating concentration of inhibitor (max effect). The apparent effect as a function of compound concentration is fit to a four-parameter logistic equation.

Another experiment deals with KRAS-G12V (Homo sapiens, UniProt P01116, G12V). As to the kind of experiment: SOS-catalyzed nucleotide exchange assay (Procedure A, TR-FRET), KRAS-G12V. The format is biochemical. The following applies: nucleotide exchange, read-out: KRAS G12V GNE IC50. The method in brief: as §1
In general terms: TR-FRET usually uses a lanthanide donor and a delayed reading to cut background.

A further experiment concerns the target KRAS-G12D (Homo sapiens, UniProt P01116, G12D). The experiment in a line: SOS-catalyzed nucleotide exchange assay (Procedure A, TR-FRET), KRAS-G12D. The following applies: nucleotide exchange, read-out: KRAS G12D GNE IC50. The format is biochemical. The method in brief: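 Signal ratio (520/495 nm, excitation 340 nm) reports Bodipy-GDP retention on biotinylated RAS after SOS-catalyzed exchange with 3 mM GTP. SOS was 40 nM, except 160 nM for G12V. Room-temperature exchange lasted 60 min (90 min for G12V), following a 60 min compound preincubation.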

For experiment [1], the target named is KRAS-G12C (C51S/C80L/C118S) (Homo sapiens, UniProt P01116, C118S/C51S/C80L/G12C). The experiment in a line: SOS-catalyzed nucleotide exchange assay (Procedure A, TR-FRET), KRAS-G12C. It is filed as biochemical. The note with it: nucleotide exchange, Procedure A; read-out: KRAS G12C GNE IC50.
Excerpt: as §2, §3, §4, §5, §6

Like-named read-outs stand apart in the source and are kept apart here.

KRAS-G12D, sequence (P01116 with tags, fused parts or gaps isoform P01116-2 G12D): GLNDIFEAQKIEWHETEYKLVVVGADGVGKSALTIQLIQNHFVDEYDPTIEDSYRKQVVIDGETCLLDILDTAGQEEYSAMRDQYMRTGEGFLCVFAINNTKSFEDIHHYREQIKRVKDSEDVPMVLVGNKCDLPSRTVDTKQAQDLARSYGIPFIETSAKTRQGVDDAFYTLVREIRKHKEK
KRAS-G12V, sequence (P01116 with tags, fused parts or gaps isoform P01116-2 G12V): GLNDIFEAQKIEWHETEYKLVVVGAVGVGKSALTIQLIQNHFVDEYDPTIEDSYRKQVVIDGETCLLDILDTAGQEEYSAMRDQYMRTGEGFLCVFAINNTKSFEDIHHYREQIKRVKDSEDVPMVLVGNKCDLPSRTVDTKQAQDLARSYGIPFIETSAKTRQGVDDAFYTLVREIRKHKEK
KRAS-G13D, sequence (P01116 with tags, fused parts or gaps isoform P01116-2 G13D): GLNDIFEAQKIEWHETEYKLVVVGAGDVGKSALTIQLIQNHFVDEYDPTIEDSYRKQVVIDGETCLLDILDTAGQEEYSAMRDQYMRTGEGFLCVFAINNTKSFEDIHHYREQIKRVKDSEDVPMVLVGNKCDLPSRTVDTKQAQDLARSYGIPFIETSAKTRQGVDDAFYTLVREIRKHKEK
KRAS-WT, sequence (P01116 with tags, fused parts or gaps isoform P01116-2): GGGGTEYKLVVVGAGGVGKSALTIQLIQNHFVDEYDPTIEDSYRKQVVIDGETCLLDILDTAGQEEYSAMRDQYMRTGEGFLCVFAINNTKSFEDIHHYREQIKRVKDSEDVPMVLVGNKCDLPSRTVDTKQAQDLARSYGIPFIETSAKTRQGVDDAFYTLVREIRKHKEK
KRAS-G12C (C51S/C80L/C118S), sequence (P01116 with tags, fused parts or gaps isoform P01116-2 G12C/C51S/C80L/C118S): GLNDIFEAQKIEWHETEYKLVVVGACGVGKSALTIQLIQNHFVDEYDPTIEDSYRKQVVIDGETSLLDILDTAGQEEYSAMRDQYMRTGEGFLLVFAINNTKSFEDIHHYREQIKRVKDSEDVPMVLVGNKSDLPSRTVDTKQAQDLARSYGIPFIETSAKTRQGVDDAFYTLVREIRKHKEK

For `Cc1cc2[nH]ncc2c(-c2nccc3c2sc2nc(OC[C@@]45CCCN4C[C@H](F)C5)nc(N4CCOC[C@@](C)(O)C4)c23)c1C1=CCCC1` [Ex-140, (6S)-4-(8-(5-(cyclo-pent-1-en-1-yl)-6-methyl-1H-indazol-4-yl)-2-(((2R,7aS)-2-fluorotetrahydro-1H-pyrrolizin-7a(5H)-yl)methoxy)pyrido [4′,3′:4,5]thieno[2,3-d]pyrimidin-4-yl)-6-methyl-1,4-oxaze-pan-6-ol], the IC50 (in general, the concentration that inhibits the measured activity by half) in the experiment on AsPC-1 cells (2 hours compound incubation) turned out to be 560 nM; on KRAS-WT it was 184 nM; on KRAS-G13D it was 172 nM; at KRAS-G12V it was 65.3 nM; at KRAS-G12D it was 69.3 nM; in experiment [1], 362 nM.

`Cc1cc2[nH]ncc2c(-c2nccc3c2sc2nc(OC[C@@]45CCCN4C[C@H](F)C5)nc(NC4CNC(=O)C4)c23)c1C(F)(F)F` (stereo partly drawn) [Ex-192, 4-((2-(((2R,7aS)-2-fluoro-tetrahydro-1H-pyrrolizin-7a(5H)-yl)methoxy)-8-(6-methyl-5-(trifluorometh-yl)-1H-indazol-4-yl)pyrido [4′,3′:4,5]thieno[2,3-d]pyrimidin-4-yl)amino)-pyrrolidin-2-one]: the IC50 with AsPC-1 cells (2 hours compound incubation) was determined as 30000 nM; at KRAS-WT, 418 nM; on KRAS-G13D, 409 nM; on KRAS-G12V, 192 nM; at KRAS-G12D, 283 nM; in experiment [1], 121 nM.

For `CN(C)C[C@@]1(COc2nc(N3CCOC[C@@](C)(O)C3)c3c(n2)oc2c(-c4c(C5CC5)c(Cl)cc5[nH]ncc45)nccc23)CC1(F)F` [Ex-294, (6S)-4-(8-(6-chloro-5-cyclopropyl-1H-indazol-4-yl)-2-(((R)-1-((dimethylamino)methyl)-2,2-difluorocyclopropyl)meth-oxy)pyrido[4′,3′:4,5]furo[2,3-d]pyrimidin-4-yl)-6-methyl-1,4-oxazepan-6-ol], the IC50 with AsPC-1 cells (KRAS-G12D, 2 hours) came out at 295 nM; at KRAS-WT, 262 nM; on KRAS-G13D it was 106 nM; on KRAS-G12V, 125 nM; on KRAS-G12D it was 113 nM; in experiment [1], 30.1 nM.

In the case of `C[C@@]1(O)COCCN(c2nc(OC[C@@]34CCCN3C[C@H](F)C4)nc3sc4c(-c5c(-c6ccco6)c(Cl)cc6[nH]ncc56)nccc4c23)C1` [Ex-148, (6S)-4-(8-(6-chloro-5-(furan-2-yl)-1H-indazol-4-yl)-2-(((2R,7aS)-2-fluoro-tetrahydro-1H-pyr-rolizin-7a(5H)-yl)-methoxy)pyrido [4′,3′:4,5]thieno[2,3-d]pyrimidin-4-yl)-6-methyl-1,4-oxaze-pan-6-ol], the IC50 in the experiment with AsPC-1 cells (2 hours compound incubation) was determined as 91.4 nM; at KRAS-WT it was 27.6 nM; at KRAS-G13D, 20.4 nM; on KRAS-G12V it was 9.35 nM; on KRAS-G12D, 6.61 nM; in experiment [1] it was 112 nM.

In the case of `C=C(C)c1c(C)cc2[nH]ncc2c1-c1nccc2c1oc1nc(OC[C@]3(CN(C)C)CC3(F)F)nc(N3CCOC[C@@](C)(O)C3)c12` [Ex-293, (6S)-4-(2-(((R)-1-((dimethylamino)methyl)-2,2-difluorocyclopropyl)meth-oxy)-8-(6-methyl-5-(prop-1-en-2-yl)-1H-indazol-4-yl)pyrido[4′,3′:4,5]furo[2,3-d]pyrimidin-4-yl)-6-methyl-1,4-oxazepan-6-ol], the IC50 with AsPC-1 cells (KRAS-G12D, 2 hours) amounted to 1010 nM; on KRAS-WT, 455 nM; on KRAS-G13D it was 296 nM; on KRAS-G12V it was 203 nM; on KRAS-G12D it was 149 nM; in experiment [1] it was 136 nM.

For `Cc1cc2[nH]ncc2c(-c2nccc3c2sc2nc(OC[C@@]45CCCN4C[C@H](F)C5)nc(N4CCCC5(CNC(=O)C5)C4)c23)c1C(F)(F)F` (stereo partly drawn) [Ex-193, 7-(2-(((2R,7aS)-2-fluoro-tetrahydro-1H-pyrrolizin-7a(5H)-yl)methoxy)-8-(6-methyl-5-(trifluorometh-yl)-1H-indazol-4-yl)pyrido [4′,3′:4,5]thieno[2,3-d]pyrimidin-4-yl)-2,7-diaza-spiro[4.5]decan-3-one], the IC50 with AsPC-1 cells (2 hours compound incubation) came to 18300 nM; at KRAS-WT, 1200 nM; at KRAS-G13D, 970 nM; on KRAS-G12V it was 476 nM; on KRAS-G12D, 643 nM; in experiment [1], 418 nM.

Consider `C#Cc1cccc2[nH]nc(-c3nccc4c3sc3nc(OC[C@@]56CCCN5C[C@H](F)C6)nc(N5CCOC[C@@](C)(O)C5)c34)c12` [Ex-159, (S)-4-(8-(4-ethynyl-1H-indazol-3-yl)-2-(((2R,7aS)-2-fluorotetrahydro-1H-pyrrolizin-7a(5H)-yl)methoxy)pyrido[4′,3′:4,5]thieno[2,3-d]pyrimidin-4-yl)-6-methyl-1,4-oxazepan-6-ol], for which the IC50 in the experiment with AsPC-1 cells (2 hours compound incubation) was determined as 1170 nM; at KRAS-WT it was 658 nM; on KRAS-G13D, 328 nM; at KRAS-G12V, 118 nM; on KRAS-G12D it was 260 nM; in experiment [1] it was 48.3 nM.

Take `Cc1cc2[nH]ncc2c(-c2nccc3c2sc2nc(OC[C@@]45CCCN4C[C@H](F)C5)nc(N4CCOC[C@@](C)(O)C4)c23)c1-c1cccs1` [Ex-138, (6S)-4-(2-(((2R, 7aS)-2-fluorotetra-hydro-1H-pyrrolizin-7a(5H)-yl)methoxy)-8-(6-methyl-5-(thio-phen-2-yl)-1H-ind-azol-4-yl)pyrido [4′,3′:4,5]thieno[2,3-d]pyrimidin-4-yl)-6-methyl-1,4-oxaze-pan-6-ol]: the 50% inhibitory concentration (IC50) came out at 703 nM in the experiment on AsPC-1 cells (2 hours compound incubation); 398 nM on KRAS-WT; 337 nM on KRAS-G13D; 245 nM at KRAS-G12V; 150 nM on KRAS-G12D; 120 nM in experiment [1].

As to `C/C=C(\C)c1c(C)cc2[nH]ncc2c1-c1nccc2c1sc1nc(OC[C@@]34CCCN3C[C@H](F)C4)nc(N3CCOC[C@@](C)(O)C3)c12` [Ex-65, (6S)-4-(8-(5-((E)-but-2-en-2-yl)-6-methyl-1H-indazol-4-yl)-2-(((2R,7aS)-2-fluorotetrahydro-1H-pyrrolizin-7a(5H)-yl)methoxy)pyrido[4′,3′:4,5]thi-eno[2,3-d]pyrimidin-4-yl)-6-methyl-1,4-oxazepan-6-ol], the IC50 is 560 nM with AsPC-1 cells (KRAS-G12D, 2 hours); 184 nM at KRAS-WT; 172 nM at KRAS-G13D; 65.3 nM on KRAS-G12V; 69.3 nM on KRAS-G12D; 362 nM in experiment [1].
